Measured values: PMC10820135, “Pharmacokinetic, Tissue Distribution, Metabolite, and Toxicity Evaluation of the Matrine Derivative, (6aS, 10S, 11aR, 11bR, 11cS)-10-Methylaminododecahydro-3a, 7a-Diaza-benzo (de) Anthracene-8-thione” (Molecules, 2024)
Entries after “also recorded” stand apart in the source; their conditions may differ.

Test: Tissue distribution of MASM in rats
Format: in vivo, Sprague-Dawley rats
Conditions: rat
Procedure: UHPLC analysis was performed using a Thermo Accela AS system, employing an ACQUITY UPLC®BEH C18 (Waters Corporation, Wexfords, Ireland) (1.7 µm, 2.1 × 100 mm) column and a binary solvent system consisting of water containing 0.1% formic acid as mobile phase A and acetonitrile as mobile phase B. For pharmacokinetic evaluation, the gradient elution was set as follows: 97% A from 0 to 2 min, 97–70% A from 2 to 3 min, 70–20% A from 3 to 3.5 min, 20% A from 3.5 to 3.6 min, 20–97% A from 3.6 to 3.7 min, and 97% A from 3.7 to 5 min. For the metabolic test, the gradient elution in full scan mode was set as follows: 97% A from 0 to 2 min, 97–70% A from 2 to 4 min, 70–20% A from 4 to 6 min, 20% A from 6 to 7 min, 20–97% A from 7 to 8 min, and 97% A from 8 to 10 min. The flow rate was 0.2 mL/min, with a temperature of 40 °C maintained and an injection volume of 5 μL. The QQQ-MS/MS analysis was conducted using a Thermo TSQ QUANTUM ACCESS MAX system equipped with an electrospray ionization (ESI) source. The spray voltages were set at 4.0 kV and 2.5 kV for positive and negative ion modes, respectively; capillary and vaporizer temperatures were 320 °C and 350 °C, respectively; sheath and aux gas pressures were 35 and 10 psi, respectively.
A total of 36 Sprague-Dawley rats (18 male and 18 female) were randomly and equally assigned to 6 groups, with 3 male and 3 female rats in each group. Among these groups, 3 groups were administrated MASM intragastrically at a dosage of 60 mg/kg, while the remaining 3 groups received intraperitoneal administration of MASM at a dosage of 80 mg/kg. The rats in each group were euthanized at three different time points: 1 h, 2 h, and 24 h after administration. Subsequently, various tissues, including the heart, liver, spleen, lung, kidney, stomach, muscle, and brain, were promptly collected and weighed. These tissues were then homogenized using acetonitrile at a ratio of 1:10 and stored at a temperature of −80 °C until further analysis. During the analysis of the tissue sample, the protein was precipitated following the tissues: acetonitrile with a ratio of 1:3 and a volume of 5μL of the resulting supernatant were injected. The UHPLC-QQQ-MS/MS analysis method that was developed, underwent a comprehensive validation process, and the concentration of MASM in each tissue was determined using linear regression equations. Bar graphs were generated by applying Prism 8.0 (GraphPad Software Inc., San Diego, CA, USA).

Question: Which results are given for `CNC1CC(=S)N2CC3CCCN4CCCC(C34)C2C1` [MASM, (6aS, 10S, 11aR, 11bR, 11cS)-10-methylaminododecahydro-3a, 7a-diaza-benzo (de) anthracene-8-thione]?
Answer: tissues with concentration surpassing other organs at 1 h (following the initial hour): liver, kidney, and intestine; time at which Cmax in liver tissue was achieved (i.g. 60 mg/kg and i.p. 80 mg/kg): ≤ 1 h; tissue with higher concentration than other organs at 2 h and 24 h (i.g. 60 mg/kg or i.p. 80 mg/kg): spleen and intestine; tissues of main distribution / higher accumulation (i.g. 60 mg/kg or i.p. 80 mg/kg, 1, 2, 24 h): primarily distributed in the liver, kidney, and spleen tissues; detection in tissues (heart, liver, spleen, lung, kidney, brain, muscle, intestine, stomach): detected in all rat tissues including the brain; also recorded: detected in various tissues at 1, 2, and 24 h after administration
